The text below walks through data of paper PMC6271241, “Several Human Cyclin-Dependent Kinase Inhibitors, Structurally Related to Roscovitine, As New Anti-Malarial Agents” (Molecules, 2014).

Molecules are shown by their SMILES. Where two headings read alike, the source gives them in different places.

One data set concerns DYRK1A. Details: method as in PMID 17850214. The following applies: cited from earlier work.
On the set-up of data set [1]: method as in PMID 12809528. The settings on record: cited from earlier work.
The target in a further data set is T1, CDK5/p25 (Homo sapiens, UniProt Q00535).
T1 construct: made in house
T1 sequence (Q00535 whole entry): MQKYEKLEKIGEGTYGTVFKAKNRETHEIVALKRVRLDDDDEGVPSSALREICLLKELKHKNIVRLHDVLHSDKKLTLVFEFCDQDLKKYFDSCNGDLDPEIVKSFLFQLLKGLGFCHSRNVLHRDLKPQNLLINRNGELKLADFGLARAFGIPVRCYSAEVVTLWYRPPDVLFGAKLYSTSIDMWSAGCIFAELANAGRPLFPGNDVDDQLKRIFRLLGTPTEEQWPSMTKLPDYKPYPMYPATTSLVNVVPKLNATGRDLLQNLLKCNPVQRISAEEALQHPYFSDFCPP
T1 sequence (Q15078 99-307 partner limits assumed): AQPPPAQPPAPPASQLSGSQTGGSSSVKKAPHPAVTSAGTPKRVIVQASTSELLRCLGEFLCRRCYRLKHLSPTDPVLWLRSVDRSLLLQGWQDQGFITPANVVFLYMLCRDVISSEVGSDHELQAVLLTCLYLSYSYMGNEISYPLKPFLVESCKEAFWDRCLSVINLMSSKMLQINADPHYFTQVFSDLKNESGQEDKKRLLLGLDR
Description: CDK5/p25 kinase assay ([γ-33P] ATP, histone H1). The format is biochemical. The following applies: CDK5/p25, 15 µM ATP; Table 1; read-out: IC50 CDK5. As for the experimental part: (§1) CDK1/cyclin B (M phase starfish oocytes, native), CDK2/cyclin A (human, recombinant) and CDK5/p25 (human, recombinant) were prepared as previously described. […] ATP (3000 Ci/mmol; 10 mCi/mL) in a final volume of 30 µL. After 30 min incubation at 30 °C, 25 µL aliquots of supernatant were spotted onto 2.5 cm × 3 cm pieces of Whatman P81 phosphocellulose paper, and, 20 s later, the filters were washed five times (for at least 5 min each time) in a solution of 10 mL of phosphoric acid/liter of water. The wet filters were counted in the presence of 1 mL of ACS (Amersham, Pittsburgh, PA, USA) scintillation fluid.

The subject of a further data set is N2A-APP659 cell model. Details: method as in PMID 18698753. The following applies: dose-dependent; cited from earlier work.
In another data set the target is GSK-3α/β. The data set is described as follows: GSK-3α/β kinase assay (GS-1 peptide). The settings on record: read-out: IC50 GSK-3αβ; 15 µM ATP; Table 1; >10 = no activity at 10 µM.
The target of data set [2] is CDK1/cyclin B. Description: CDK1/cyclin B kinase assay ([γ-33P] ATP, histone H1). The format is biochemical, starfish. The settings on record: 15 µM ATP, Table 1. On the procedure: as §1
Data set [3] has as its system CK1δ/ε. Details: method as in PMID 18698753. The following applies: read-out: IC50 CK1; cited from earlier work.
In data set [4] the target is CK1δ/ε. The data set is described as follows: CK1δ/ε kinase assay (CKS peptide). The following applies: read-out: IC50 CK1δ/ε; 15 µM ATP; Table 1.
Description: (§6) The effects on CDK1/cyclin B, CDK2/cyclin A, CDK5/p25, GSK-3αβ, CK1δ/ε and DYRK1A kinase activity are reported as the IC50 values calculated from dose-response curves. The inhibition was determined covering a range of concentrations of the compounds by means of a [γ-^33P] assay as described in the experimental section.
(§7) Controls were performed with appropriate dilutions of DMSO.
In the next data set the test system is CK1. Details: method as in PMID 10662688. The following applies: cited from earlier work.
A further data set deals with Pfmrk. Details: method as in PMID 10722743, PMID 11434907. The settings on record: recombinant; cited from earlier work.
The test system of the next data set is recombinant PfPK5. Details: method as in PMID 10722743, PMID 11434907. The following applies: cited from earlier work.
For the next data set, the system named is Pf7G8. The data set is described as follows: [3H]hypoxanthine incorporation growth assay, Pf7G8. The following applies: Plasmodium falciparum. The format is cell-based, Plasmodium falciparum. On the procedure:
(§2) A selection of 15 molecules 4b–c, 10–13 representing the different 2,6,9-trisubstituted purine series, including newly synthesized products was screened as anti-malarial agents on two different P. falciparum strains, Pf3D7, a standard drug-sensitive African stain, and Pf7G8, a brazilian chloroquino-resistant strain (Figure 3). The compound activity was evaluated during the parasitic erythocytic cycle, by the means of a [^3H] hypoxanthine incorporation assay. It is directly correlated to parasite viability, as described in the experimental section.
(§3) At first, the activity of the fifteen compounds was screened at three different concentrations (10, 50 and 100 µM) on Pf3D7. Chloroquine which is not a kinase inhibitor, but which is the antimalarial reference drug was used as the positive control. […] Chloroquine was again used as a positive control.
(§4) Compounds were tested against synchronous ring-stage parasites of Pf3D7 and Pf7G8 strains. Drugs testing were carried out in 96-well microtiter plates. The chloroquine (CQ) diphosphate was purchased from Sigma (Lyon, France). […] For each assay, each drug dilution was analyzed in triplicate.
(§5) For the in vitro isotopic microtest, 200 µL of the suspension of synchronous parasitized red blood cells with >90% of the parasites at the ring stage (final parasitaemia, 0.3%; final haematocrit, 4%) per well were plated in 96-well plates that contained serial CQ or compounds concentrations. […] The plates were incubated at 37 °C, in an atmosphere of 5% O2, 5% CO2, and 90% N2 for 48 h. Immediately after incubation, plates were frozen and then thawed to lyse the erythrocytes. Cultures were harvested onto glass fiber filters and washed using a cell harvester (FilterMAT; Skatron Instruments, Dalsletta, Norway). The dried fiber filter papers were mixed with 2 mL of scintillation fluid (OptiScint; Perkin-Elmer, Waltham, UK). […] The initial value and the asymptotic result for high concentrations were fixed to 0% and 100%, respectively, available on the web.

Another data set concerns Pf3D7. The data set is described as follows: [3H]hypoxanthine incorporation growth assay, Pf3D7. The format is cell-based, Plasmodium falciparum. The following applies: Plasmodium falciparum. On the procedure:
as §2, §3, §4, §5

Data set [5] deals with CDK1/cyclin B. The data set is described as follows: CDK1/cyclin B kinase assay ([γ-33P] ATP, histone H1). The format is biochemical, starfish. The settings on record: Table A1; read-out: IC50 on HsCDKs HsCDK1.

Description for GSK-3α/β: as §6, §7
GSK-3α/β (porcine brain, native) was assayed, as described for CDK1 but in Buffer A and using a GSK-3 specific substrate (GS-1: [sequence]pEDEEE) (pS stands for phosphorylated serine).

Take `CC[C@H](CO)Nc1nc(NCc2ccccc2)c2ncn(C(C)C)c2n1` [Compound 1, (R)-roscovitine]: in the data set on DYRK1A (at 1 µM), the “remaining DYRK1A kinase activity” value was 87%. For the same compound, in data set [1] (human, daily oral dose), the maximal tolerated dose is recorded as 2 g. The oral bioavailability result in data set [1] (humans, oral administration) is on record as “good oral bioavailability”.
In the case of `CC[C@H](CO)Nc1nc(Nc2cccc(-c3ccccn3)c2)c2ncn(C(C)C)c2n1` [Compound 3], the IC50 was 0.08 µM at CDK5/p25; above 10 µM at GSK-3α/β; 0.22 µM against CDK1/cyclin B [2]; 0.014 µM with CK1δ/ε [3]; 0.01 µM on CK1δ/ε [4]. In addition, the amyloïd-β production result in the data set with N2A-APP659 cell model is “antagonizes amyloïd-β production”.
For `NC1=NC(=O)/C(=C2\CCNC(=O)c3[nH]c(Br)cc32)N1` [hymenialdisine], the IC50 in the data set with CK1 is 0.03 µM.
In the case of `CC(C)[C@H](CO)Nc1nc(Nc2cccc(Cl)c2)c2ncn(C(C)C)c2n1` [Compound 2a, purvalanol A, reference compound], the IC50 in the data set with Pfmrk is 26 µM; with recombinant PfPK5 it was 8 µM; in the data set on Pf7G8 (48 h, read-out: Growth IC50 Pf7G8), 8.12 µM; in the data set on Pf7G8 (read-out: IC50 on P. falciparum Strains Pf7G8), 8.12 µM; with Pf3D7 (48 h, read-out: Growth IC50 Pf3D7) it was 4.58 µM; with Pf3D7 (read-out: IC50 on P. falciparum Strains Pf3D7) it was 4.58 µM. Also, the IC50 on CDK1/cyclin B [5] stood at 0.004 µM. The “remaining DYRK1A kinase activity” value in the data set on DYRK1A (at 0.1 µM) was 88%.
